From patent US20160354373A1, “METHODS OF TREATING ACUTE T CELL LEUKEMIA” (priority 2015, published 2016)

How the values were obtained:
[1] = system: Myc expression signatures; details: AMD3100 or vehicle for 4 days in vitro, OP9 co-culture
Method: FIG. 14A is a heat map depicting differentially expressed genes (Myc targets are indicated) in primary mouse T-ALL cells after 4 day culture with OP9 cells in the presence of AMD3100 or vehicle (right; n=3). […] Data represents 3 different experiments, with cells pooled from 1-3 mice per experiment.
Primary mouse T-ALL cells isolated from spleen were maintained on OP9 stromal cells in OptiMEM+GlutaMAX (Invitrogen) supplemented with 10% FBS, 5 ng/ml IL-7, penicillin and streptomycin, and 55 μM (3-mercaptoethanol and passaged every 3-4 days onto a fresh feeder layer. OP9 cells were pre-treated with 7.5 ng/mL mitomycin C (Sigma) to prevent feeder cell division. Mouse ETP T-ALL (Treanor et al., “Interleukin-7 Receptor Mutants Initiate Early T Cell Precursor Leukemia in Murine Thymocyte Progenitors with Multipotent Potential,” J. Exp. Med. 211:701-713 (2014), which is hereby incorporated by reference in its entirety) and a T-ALL cell line generated by ENU mutagenesis carrying a Notch1 PEST domain mutation (G7084 (ins)C7085) were maintained on OP9-DLL4 feeders. […]
Total RNA was extracted from samples using RNeasy Plus Mini Kit (Life Technologies). […] RNA libraries were then sequenced on the Illumina HiSeq 2000 or 2500 using 50 bp single-end reads. […]

[2] = recent clinical trials data; cited from earlier work
Myc [3] = details: 4 days culture on OP9 cells with AMD3465 or vehicle, in vitro
Method: (§1) Primary mouse T-ALL cells isolated from spleen were maintained on OP9 stromal cells in OptiMEM+GlutaMAX (Invitrogen) supplemented with 10% FBS, 5 ng/ml IL-7, penicillin and streptomycin, and 55 μM (3-mercaptoethanol and passaged every 3-4 days onto a fresh feeder layer. OP9 cells were pre-treated with 7.5 ng/mL mitomycin C (Sigma) to prevent feeder cell division. Mouse ETP T-ALL (Treanor et al., “Interleukin-7 Receptor Mutants Initiate Early T Cell Precursor Leukemia in Murine Thymocyte Progenitors with Multipotent Potential,” J. Exp. Med. 211:701-713 (2014), which is hereby incorporated by reference in its entirety) and a T-ALL cell line generated by ENU mutagenesis carrying a Notch1 PEST domain mutation (G7084 (ins)C7085) were maintained on OP9-DLL4 feeders. AMD3100 octahydrochloride hydrate (10 ug/mL in water; Sigma), AMD3465 hexahydrobromide (50 ug/mL in water; Tocris or Cayman Chemical) or the corresponding vehicle was added to culture media at the start of the culture period.

Myc [4] = details: 8 hours after s.c. AMD3465, 2 doses of 25 mg/kg 4 hours apart, vs PBS; wild-type T-ALL
Method: Whole cell lysates were prepared in RIPA buffer (50 mM Tris-HCl, 150 mM NaCl, 1% NP-40, 0.25% sodium deoxycholate, 5 mM EDTA) containing complete Mini protease and phosSTOP phosphatase inhibitors (Roche) and resolved by 8% SDS-PAGE gel electrophoresis. Proteins were transferred to nitrocellulose membranes (Bio-Rad) and probed with primary antibodies raised against c-Myc (polyclonal, Cell Signaling Technologies); 0-tubulin (polyclonal, Abcam); and β-actin (clone C4, Santa Cruz Biotechnologies). Following incubation with horseradish peroxidase (HRP)-conjugated anti-mouse or anti-rabbit secondary antibodies (Jackson laboratories), proteins were detected using the SuperSignal West Pico ECL Kit (Thermo Scientific) and exposed to film or imaged using the ChemiDoc MP system (Bio-rad).
For inhibition of CXCR4 in primary mouse T-ALL, mice were anaesthetized by isoflurane inhalation and implanted subcutaneously with osmotic pumps (model 2002; Alzet) filled with 40 mM AMD3465 (Tocris) or PBS (flow rate 0.5 ul/hour).

[5] = system: primary mouse T-ALL cells; details: MIG-IRES-GFP-cMyc vs control transduced cells; 4 days OP9 co-culture
Method: Data represents 1 experiment with 3 replicates per group for each AMD3465 concentration tested. Error bars represent +/−SD.
as §1

[6] = system: Notch1-ΔE-IRES-GFP+ T-ALL cells; details: AMD3465 20 nmol/hour via s.c. osmotic pump vs PBS; two weeks of treatment; started at >5% GFP+ blasts in blood
From the text: After GFP^+ leukemic cells reached 5% of white blood cells, osmotic pumps filled with AMD3465 (20 nmol/hour) or vehicle (PBS) were implanted subcutaneously (s.c.). The graphs show T-ALL cell numbers in the indicated tissues 2 weeks after treatment initiation. Bars represent the mean. […] After leukemia reached 5% of white blood cells, osmotic pumps filled with AMD3465 (25 nmol/hour) or vehicle were implanted s.c. Analysis was 2 weeks after treatment initiation. […] Values represent the mean frequency of hCD45^+ cells+/−SEM. […] Bars represent the mean.
For inhibition of CXCR4 in primary mouse T-ALL, mice were anaesthetized by isoflurane inhalation and implanted subcutaneously with osmotic pumps (model 2002; Alzet) filled with 40 mM AMD3465 (Tocris) or PBS (flow rate 0.5 ul/hour). […] For CXCR4 inhibition in xenografted patient T-ALL, NOD-SCID mice were implanted with osmotic pumps filled with 50 mM AMD3465 or PBS. Mice implanted with osmotic pumps were sacrificed 14 days later for analysis of tumor burden by flow cytometry.
To this end, two cohorts of lethally irradiated mice were transplanted with Notch1-ΔE-IRES-GFP^+ bone marrow progenitor cells, and after >5% peripheral blood lymphocytes constituted GFP^+ leukemic blasts, AMD3465 (20 nmol/hour) or PBS was administered via osmotic pump.

[7] = system: primary human T-ALL cells (hCD45+); details: two weeks
From the text: After GFP^+ leukemic cells reached 5% of white blood cells, osmotic pumps filled with AMD3465 (20 nmol/hour) or vehicle (PBS) were implanted subcutaneously (s.c.). […] After leukemia reached 5% of white blood cells, osmotic pumps filled with AMD3465 (25 nmol/hour) or vehicle were implanted s.c. Analysis was 2 weeks after treatment initiation. […] Values represent the mean frequency of hCD45^+ cells+/−SEM.
For human xenograft studies, NOD-SCID donor mice were used. […] 1-5×10^6 cells patient cells were transplanted into immunodeficient mouse strains via retro-orbital injection. Cells from spleen of these primary recipients were used for experiments.
For CXCR4 inhibition in xenografted patient T-ALL, NOD-SCID mice were implanted with osmotic pumps filled with 50 mM AMD3465 or PBS. Mice implanted with osmotic pumps were sacrificed 14 days later for analysis of tumor burden by flow cytometry.
First, the primary human leukemia cells were expanded in immune-deficient NOD/MrkBomTac-Prkdc^scid (NOD-SCID) hosts for 6 weeks. Subsequently, two million human T-ALL cells were transplanted into secondary NOD-SCID hosts and peripheral blood was monitored for the appearance of human CD45+ (hCD45+) leukemic cells. Once leukemia constituted >5% of white blood cells in blood, treatment began with AMD3465 or vehicle using osmotic pumps. Two weeks later, animals were sacrificed and the leukemia burden was assessed.

Row | SMILES | enrichment of genes down-regulated by treatment in Myc DNA binding databases (GSEA) [1] | absorption [2] | tolerability [2] | Myc protein expression (MYC-GFP fusion allele) in mouse LIC cells (Myc [3]) | Myc protein levels in T-ALL cells (Myc [4]) | proliferation of T-ALL cells in the presence of AMD3465 upon Myc overexpression [5] | leukemia burden across all tissues surveyed (T-ALL cell numbers) [6] | number of hCD45+ cells in blood and spleen ([7]; AMD3465 25 nmol/hour via s.c. osmotic pump vs vehicle, patient 1 and 2 xenografts in NOD-SCID) | T-ALL infiltration of brain, liver and lungs (histo-pathological analysis) ([7]; AMD3465 via osmotic pump vs PBS, patient 1 xenograft) | splenomegaly ([7]; AMD3465 via osmotic pump vs vehicle (PBS), xenografted NOD-SCID mice)
1 | c1cc(CN2CCCNCCNCCCNCC2)ccc1CN1CCCNCCNCCCNCC1 [AMD3100, 1,1′-[1,4-phenylenebis(methylene)]bis[1,4,8,11-tetraazacyclotetradecane]] | significant enrichment | absorbed quickly | well tolerated |  |  |  |  |  |  | 
2 | c1ccc(CNCc2ccc(CN3CCCNCCNCCCNCC3)cc2)nc1 [AMD3465, N[1,4,8,11-tetraazacyclotetradecanyl-1,4-phenylene-bis-(methylene)]-2-aminomethyl-pyridine] |  |  |  | Reduced | reduced | partially restored | substantial reduction | significantly reduced | virtually leukemia-free | substantially decreased
